Measured values reported in ChEMBL document CHEMBL3232855, “The discovery of N-((2H-tetrazol-5-yl)methyl)-4-((R)-1-((5r,8R)-8-(tert-butyl)-3-(3,5-dichlorophenyl)-2-oxo-1,4-diazaspiro[4.5]dec-3-en-1-yl)-4,4-dimethylpentyl)benzamide (SCH 900822): a potent and selective glucagon receptor antagonist” (J Med Chem, 2014).
The source made the active and inactive calls. No cut-off for these calls is given here.

Legend:
[1] = Oral bioavailability in rat at 3 mg/kg; format: ADME, organism-based; details: in vivo
[2] = target: Glucagon-like peptide 1 receptor (Homo sapiens, UniProt P43220); test: Antagonist activity at human GLP-1R expressed in CHO cells assessed as inhibition of GLP-1-stimulated cAMP production preincubated for 30 mins followed by GLP-1 induction measured after 45 mins by LANCE assay; format: functional, cell-based
Glucagon-like peptide 1 receptor, sequence (P43220 whole entry): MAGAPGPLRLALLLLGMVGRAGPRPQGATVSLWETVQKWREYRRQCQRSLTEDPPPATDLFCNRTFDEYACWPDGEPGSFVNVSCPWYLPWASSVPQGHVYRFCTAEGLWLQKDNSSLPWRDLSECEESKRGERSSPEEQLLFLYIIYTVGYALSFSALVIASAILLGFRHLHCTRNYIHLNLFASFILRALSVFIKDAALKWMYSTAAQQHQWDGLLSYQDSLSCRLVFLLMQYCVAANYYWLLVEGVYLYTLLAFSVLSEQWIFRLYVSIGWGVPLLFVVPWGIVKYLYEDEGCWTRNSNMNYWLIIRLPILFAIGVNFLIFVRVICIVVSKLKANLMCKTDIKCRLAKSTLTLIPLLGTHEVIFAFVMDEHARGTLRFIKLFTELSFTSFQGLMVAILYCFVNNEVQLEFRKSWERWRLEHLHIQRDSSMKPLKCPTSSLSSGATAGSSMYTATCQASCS

[3] = Plasma concentration in streptozotocin-induced ICR mouse type-2 diabetic model at 30 mg/kg, po measured at 8 hrs by HPLC/MS/MS analysis; format: ADME, organism-based; set-up: dose 30 mg/kg, route oral
Glucagon receptor = Glucagon receptor (Mus musculus, UniProt Q61606); format: cell membranes, Liver, Membrane
Glucagon receptor, sequence (Q61606 whole entry): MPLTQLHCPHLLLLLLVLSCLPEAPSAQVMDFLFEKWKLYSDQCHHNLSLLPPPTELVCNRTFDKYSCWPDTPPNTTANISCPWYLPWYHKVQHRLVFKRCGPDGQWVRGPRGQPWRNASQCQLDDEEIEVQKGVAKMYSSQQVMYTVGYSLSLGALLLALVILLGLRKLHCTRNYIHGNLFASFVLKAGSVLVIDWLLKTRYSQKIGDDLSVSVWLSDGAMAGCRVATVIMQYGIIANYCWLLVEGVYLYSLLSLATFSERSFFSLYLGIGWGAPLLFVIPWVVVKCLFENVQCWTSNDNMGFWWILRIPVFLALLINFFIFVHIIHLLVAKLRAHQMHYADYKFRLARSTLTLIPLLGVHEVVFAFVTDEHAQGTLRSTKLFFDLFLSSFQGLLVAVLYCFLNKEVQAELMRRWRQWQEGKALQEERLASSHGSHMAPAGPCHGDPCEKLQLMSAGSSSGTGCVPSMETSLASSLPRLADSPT
Description: Displacement of [125I]-glucagon from GCGR in mouse liver membranes after 60 mins by scintillation counting analysis

[4] = Volume of distribution at steady state in mouse at 3 mg/kg, iv; format: ADME, organism-based; set-up: dose 3 mg/kg, route intravenous; details: in vivo, read-out: Vdss
[5] = target: T1, Type-1 angiotensin II receptor (Homo sapiens) (UniProt P30556); test: Binding affinity to AT1 receptor (unknown origin) at 10 uM by antagonist displacement assay relative to control
T1 sequence (whole entry): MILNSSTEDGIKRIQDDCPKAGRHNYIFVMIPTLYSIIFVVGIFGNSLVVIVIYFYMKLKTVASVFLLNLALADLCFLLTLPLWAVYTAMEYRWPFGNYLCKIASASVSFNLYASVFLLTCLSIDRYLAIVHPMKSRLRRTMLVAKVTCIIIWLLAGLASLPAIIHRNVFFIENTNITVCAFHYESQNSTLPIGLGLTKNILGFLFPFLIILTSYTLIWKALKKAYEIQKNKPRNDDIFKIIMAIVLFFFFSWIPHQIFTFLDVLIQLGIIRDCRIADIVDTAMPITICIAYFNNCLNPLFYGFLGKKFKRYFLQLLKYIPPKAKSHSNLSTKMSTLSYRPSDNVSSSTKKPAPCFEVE

Mus musculus = test: Antidiabetic activity in diet-induced obese ICR mouse model assessed as decrease in fasting blood glucose level at 3 to 10 mg/kg, po measured at 4 hrs by glucometer; format: functional, organism-based

## CC(C)(C)CC[C@H](c1ccc(C(=O)NCc2nn[nH]n2)cc1)N1C(=O)C(c2cc(Cl)cc(Cl)c2)=N[C@]12CC[C@@H](C(C)(C)C)CC2
[1]
  bioavailability: 15%
[2]
  IC50: > 10000 nM
[3]
  concentration at 8 h: 8.5 µM
Glucagon receptor
  IC50: 130 nM
[4]
  Vd: 1.3 L/kg
[5]
  inhibition: 93%
Mus musculus
  Activity: Active
